Results as given in US20040152672A1, “Indole compounds useful for the treatment of cancer” (priority 2000, published 2004).
Where two headings read alike, the source gives them in different places. Residues, ends and D or L forms follow the SMILES beside them. *: point of attachment. Cbz = O=C(OCc1ccccc1)*; CH2F = FC*

Legend:
[1] = system: OVCAR-3; assay: Cytotoxicity by MTT assay, confirmed by FACS propidium iodide uptake
[2] = system: HCT-116; assay: as above
[3] = system: SW260
[4] = system: Bag-1; assay: Bag-1 level in LNCaP cells by SDS-PAGE immunoblot; conditions: for effect on the etodolac-induced fall in Bag-1 levels: co- or pre-incubation with etodolac, MG-132 at 5.0 μM
[5] = system: normal B cells; assay: Viability of normal B lymphocytes (anti-CD19) by DiOC6 fluorescence; type: cell-based, human; conditions: 1.0 mM etodolac, 24 hours
Experimental: Peripheral blood lymphocytes from a normal donor were cultured with 1.0 mM etodolac for 24 hours. Then B lymphocytes were identified by staining with anti-CD19 antibody, and viability was assessed by DiOC6 fluorescence. […] When the same viability assay was run with purified CLL cells from the peripheral blood of a CLL patient, the results were different. […] More than 95% of the treated cells were malignant B lymphocytes.

[6] = cited from earlier work
[7] = system: CLL cells; assay: Viability of CLL cells in culture, erythrocin B exclusion assay; type: cell-based, human; conditions: for killing of CLL cells by either drug alone: fludarabine 10 nM or etodolac 10 μM alone, 48 hours, FIG. 3
[8] = system: Alva-31
[9] = system: PC-3
[10] = system: Alva-31; assay: Cytotoxicity by MTT assay, confirmed by FACS propidium iodide uptake
[11] = system: CLL cells; assay: In vitro survival of CLL cells taken from patients before and after etodolac tablets; type: in vivo, human; conditions: patient two
Experimental: Heparinized blood was taken from two patients ([…]) with CLL. Then each patient immediately took a 400 mg etodolac tablet, and a second tablet 12 hours later. After another 12 hours, a second blood specimen was obtained. The CLL cells were isolated and their survival in vitro were compared in RPMI 1640 medium containing 10% autologous plasma, as described in Example 1. The circles show CLL cells before etodolac treatment. In FIGS. 6-7, the upward pointing triangles represent CLL cell viability after etodolac treatment, wherein the cells are dispersed in medium containing the pre-treatment plasma. The downward pointing triangles are CLL cells after treatment maintained in medium with the post-treatment plasma.
FIG. 8 is a flow cytometric analysis of CLL cells from patient two before and after etodolac treatment. […]
To conduct the flow cytometric analysis, the mitochondrial transmembrane potential was analyzed by 3,3′ dihexyloxacarboncyanide iodide (DiOC6), cell membrane permeability by propidium iodide (PI)3 and mitochondrial respiration by dihydrorhodamine 123 (DHR) (See J. A. Royall et al., Arch. Biochem. Biophys., 302, 348 (1993)). […] Cells were analyzed within 30 minutes in a Becton Dickinson FAC-Scalibur cytofluorometer. After suitable […], fluorescence was recorded at different wavelength: DiOC6 and DHR at 525 nm (Fl-1) and PI at 600 nm (FL-3).

[12] = system: normal peripheral blood lymphocytes (PBL); assay: Viability of normal PBLs, erythrocin B exclusion assay; type: cell-based, human; conditions: FIG. 1; only at this concentration
[13] = system: OVCAR-3
[14] = system: HCT-116
[15] = system: Bcl-2 and Bax; assay: Bcl-2 and Bax levels in LNCaP cells; conditions: etodolac incubation; data not shown
[16] = system: LNCaP-FGC
[17] = system: Mcl-1; assay: Mcl-1 level in LNCaP cells by SDS-PAGE immunoblot; conditions: for effect on the etodolac-induced fall in Mcl-1 levels: co- or pre-incubation with etodolac, MG-132 at 5.0 μM
[18] = system: LNCaP-FGC; assay: Cytotoxicity by MTT assay, confirmed by FACS propidium iodide uptake
[19] = system: MDA-MB-231
[20] = system: A549; assay: Cytotoxicity by MTT assay, confirmed by FACS propidium iodide uptake
[21] = system: PC-3; assay: as above
[22] = system: A549
[23] = system: prostate cancer tissue
Description: The tissues were next fixed in 4% paraformaldehyde in PBS, embedded in paraffin, sectioned and stained with hematoxylin and eosin.

[24] = system: MDA-MB-231; assay: Cytotoxicity by MTT assay, confirmed by FACS propidium iodide uptake
[25] = in vivo
[26] = biological target: PPAR-γ (Mus musculus, UniProt P37238); conditions: RAW264.7, 24 hours; concentrations readily achieved in human plasma; FIG. 13
[27] = system: adjuvant polyarthritis; conditions: reduction in paw volume of rats with adjuvant polyarthritis, prostaglandin synthetase inhibitory activity; Demerson et al.; cited from earlier work
[28] = biological target: MRP (Homo sapiens, UniProt P33527); conditions: WO98/18490; cited from earlier work
[29] = system: prostate cancer; conditions: TRAMP mouse; Wechter et al. 2000; cited from earlier work
[30] = system: B-cell CLL cells; conditions: Bellosillo et al., Blood 1998; cited from earlier work
[31] = 100 μM etodolac, as early as two hours

Sequence of PPAR-γ (P37238 31-505 limits assumed): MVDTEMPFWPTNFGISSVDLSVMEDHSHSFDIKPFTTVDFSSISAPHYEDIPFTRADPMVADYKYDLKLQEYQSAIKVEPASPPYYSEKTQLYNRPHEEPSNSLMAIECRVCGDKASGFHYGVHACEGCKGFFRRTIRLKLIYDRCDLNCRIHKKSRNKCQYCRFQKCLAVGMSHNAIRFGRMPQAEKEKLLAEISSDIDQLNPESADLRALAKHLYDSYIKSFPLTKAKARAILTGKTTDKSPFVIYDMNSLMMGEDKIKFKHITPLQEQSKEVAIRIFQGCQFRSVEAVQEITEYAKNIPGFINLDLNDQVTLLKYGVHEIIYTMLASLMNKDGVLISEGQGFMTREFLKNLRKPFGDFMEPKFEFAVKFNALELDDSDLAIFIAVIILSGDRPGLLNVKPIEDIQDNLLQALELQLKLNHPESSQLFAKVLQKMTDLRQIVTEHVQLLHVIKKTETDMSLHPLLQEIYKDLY
Sequence of MRP (P33527 whole entry): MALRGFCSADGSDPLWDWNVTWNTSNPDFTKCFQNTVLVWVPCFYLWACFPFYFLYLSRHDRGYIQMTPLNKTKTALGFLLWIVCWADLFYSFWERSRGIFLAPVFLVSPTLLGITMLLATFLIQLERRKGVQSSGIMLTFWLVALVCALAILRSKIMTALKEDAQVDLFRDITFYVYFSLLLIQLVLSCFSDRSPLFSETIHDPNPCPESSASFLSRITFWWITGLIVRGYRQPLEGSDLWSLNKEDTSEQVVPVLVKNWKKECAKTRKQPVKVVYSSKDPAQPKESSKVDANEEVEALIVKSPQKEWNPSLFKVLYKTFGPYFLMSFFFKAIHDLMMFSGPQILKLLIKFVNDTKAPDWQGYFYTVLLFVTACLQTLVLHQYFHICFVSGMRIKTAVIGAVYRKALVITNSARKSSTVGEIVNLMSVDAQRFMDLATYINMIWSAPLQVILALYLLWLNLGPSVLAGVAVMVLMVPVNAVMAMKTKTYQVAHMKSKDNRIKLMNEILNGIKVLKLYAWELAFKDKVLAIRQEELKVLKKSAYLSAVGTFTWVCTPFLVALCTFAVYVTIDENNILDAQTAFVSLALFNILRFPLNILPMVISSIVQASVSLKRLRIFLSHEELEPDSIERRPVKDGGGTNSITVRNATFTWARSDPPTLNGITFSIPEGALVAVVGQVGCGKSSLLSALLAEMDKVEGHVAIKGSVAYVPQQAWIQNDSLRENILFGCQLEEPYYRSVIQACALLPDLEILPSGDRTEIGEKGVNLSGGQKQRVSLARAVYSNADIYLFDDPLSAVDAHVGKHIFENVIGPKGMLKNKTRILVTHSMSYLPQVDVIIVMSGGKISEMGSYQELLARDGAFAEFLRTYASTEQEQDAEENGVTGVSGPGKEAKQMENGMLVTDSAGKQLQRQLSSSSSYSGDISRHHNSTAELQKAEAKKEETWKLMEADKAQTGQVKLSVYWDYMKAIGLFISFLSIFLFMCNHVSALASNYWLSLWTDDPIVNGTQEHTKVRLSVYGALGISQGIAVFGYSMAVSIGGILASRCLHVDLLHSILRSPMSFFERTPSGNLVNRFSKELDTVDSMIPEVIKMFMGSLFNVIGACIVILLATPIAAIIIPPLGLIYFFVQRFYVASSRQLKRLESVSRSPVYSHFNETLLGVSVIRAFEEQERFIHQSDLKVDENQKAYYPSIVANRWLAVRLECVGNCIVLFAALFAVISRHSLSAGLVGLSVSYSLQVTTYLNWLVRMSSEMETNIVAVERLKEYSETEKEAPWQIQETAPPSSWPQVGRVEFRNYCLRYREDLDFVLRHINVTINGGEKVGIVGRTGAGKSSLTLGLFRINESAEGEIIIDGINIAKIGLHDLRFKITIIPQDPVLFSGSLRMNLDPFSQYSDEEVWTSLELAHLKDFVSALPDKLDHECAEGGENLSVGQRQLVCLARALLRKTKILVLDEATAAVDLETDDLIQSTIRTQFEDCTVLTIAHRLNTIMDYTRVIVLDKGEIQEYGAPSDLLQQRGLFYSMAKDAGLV

## CCc1cccc2c3c([nH]c12)C(CC)(CC(=O)O)OCC3 (stereo not drawn) [Etodolac R/S, 1,8-diethyl-1,3,4,9-tetrahydro[3,4-6]indole-1-acetic acid]
[1]; OVCAR-3, sensitivity of the cell line to etodolac
  Phenoty: Resistant
[2]; HCT-116, sensitivity of the cell line to etodolac
  Phenoty: Sensitive
[3]
  IC50: 1000 ± 120 µM
[3]; SW260, sensitivity of the cell line to etodolac
  Phenoty: Resistant
[4]; [31]
  Bag-1 levels: fell
[5]
  viability of normal B cells compared to control cultures: did not reduce the viability
[6]; in vivo
  elimination half-life: 6 to 8 h
[7]; 200 μM, 48 hour exposure, FIG. 2
  CLL cells killed: 50%
[7]
  killing of CLL cells by either drug alone: ineffective
[8]
  IC50: > 1000 µM
[9]
  IC50: 340 ± 20 µM
[10]; Alva-31, sensitivity of the cell line to etodolac
  Phenoty: Resistant
[11]; flow cytometry, detectable at 12 hours, increases after 24 hours, FIG. 8
  apoptotic CLL cells (low DiOC6 staining, left lower box) after versus before treatment: much higher after the drug
[11]; two 400 mg tablets 12 hours apart, FIG. 6
  in vitro survival of CLL cells after treatment compared to before treatment: shortened survival
[12]
  concentration at which significant death of normal PBLs occurred: 800 µM
[13]
  IC50: > 1000 µM
[14]
  IC50: 450 ± 15 µM
[15]
  Bcl-2 and Bax levels: did not alter
[16]
  IC50: 400 ± 35 µM
[17]; [31]
  Mcl-1 levels: fell
[18]; LNCaP-FGC, sensitivity of the cell line to etodolac
  Phenoty: Sensitive
[19]
  IC50: > 1000 µM
[20]; A549, sensitivity of the cell line to etodolac
  Phenoty: Resistant
[21]; PC-3, sensitivity of the cell line to etodolac
  Phenoty: Sensitive
[22]
  IC50: > 1000 µM
[23]
  effect on normal basal cells in prostatectomy samples: did not affect
[24]; MDA-MB-231, sensitivity of the cell line to etodolac
  Phenoty: Resistant

## CCc1cccc2c3c([nH]c12)[C@@](CC)(CC(=O)O)OCC3 [Etodolac R]
[1]; read-out: IC50 cytotoxicity, OVCAR-3 (ovarian), MTT after three days continuous exposure
  IC50: > 1000 µM
[2]; read-out: IC50 cytotoxicity, HCT-116 (colon), MTT after three days continuous exposure
  IC50: 280 ± 20 µM
[25]
  maximal plasma concentration in a human subject (should yield): about 400 μM
[6]; after a 200 mg dose in six elderly patients
  maximum plasma concentration: about 33 μM
[6]; after the administration of RS-etodolac
  plasma concentrations, fold higher than those of the S-enantiomer: about 10 fold
[26]
  activation of PPAR-γ reporter gene construct: activated
[10]; read-out: IC50 cytotoxicity, Alva-31 (prostate), MTT after three days continuous exposure
  IC50: > 1000 µM
[17]
  Mcl-1 degradation by the enantiomers: induced Mcl-1 degradation at equivalent concentrations
[18]; read-out: IC50 cytotoxicity, LNCaP-FGC (prostate), MTT after three days continuous exposure
  IC50: 270 ± 50 µM
[27]
  anti-inflammatory activity: No anti-inflammatory activity was discernible
[20]; read-out: IC50 cytotoxicity, A549 (lung), MTT after three days continuous exposure
  IC50: > 1000 µM
[21]; read-out: IC50 cytotoxicity, PC-3 (prostate), MTT after three days continuous exposure
  IC50: 150 ± 15 µM
[24]; read-out: IC50 cytotoxicity, MDA-MB-231 (breast), MTT after three days continuous exposure
  IC50: > 1000 µM

## CCc1cccc2c3c([nH]c12)C(CC)(CC(=O)O)OCC3 (stereo not drawn) [Etodolac S]
[26]
  activation of PPAR-γ reporter gene construct: activated
[8]
  IC50: > 1000 µM
[9]
  IC50: 800 µM
[13]
  IC50: > 1000 µM
[14]
  IC50: 420 ± 50 µM
[16]
  IC50: 220 ± 20 µM
[17]
  Mcl-1 degradation by the enantiomers: induced Mcl-1 degradation at equivalent concentrations
[19]
  IC50: > 1000 µM
[27]
  anti-inflammatory activity: almost all of the anti-inflammatory activity of the racemate
[22]
  IC50: > 1000 µM

## CC(C)C[C@@H](C=O)NC(=O)[C@H](CC(C)C)NC(=O)[C@H](CC(C)C)NC(=O)OCc1ccccc1 [MG-132] (Cbz-Leu-Leu-Leu-aldehyde)
[4]
  effect on the etodolac-induced fall in Bag-1 levels: prevented
[17]
  effect on the etodolac-induced fall in Mcl-1 levels: prevented

## COc1ccc2cc([C@H](C)C(=O)O)ccc2c1 [Naproxen]
[28]
  increase of the potency of the anti-cancer drug: inactive

## C[C@@H](C(=O)O)c1ccc(-c2ccccc2)c(F)c1 [R-flurbiprofen]
[29]
  progression of prostate cancer: inhibited progression of prostate cancer

## CC(NC(=O)C(NC(=O)OCc1ccccc1)C(C)C)C(=O)NC(CC(=O)O)C(=O)CF (stereo not drawn) [Z-VAD] (Cbz-Val-Ala-Asp-CH2F; configuration not given here)
[4]
  effect on the etodolac-induced fall in Bag-1 levels: did not prevent
[17]
  effect on the etodolac-induced fall in Mcl-1 levels: did not prevent

## CC(=O)Oc1ccccc1C(=O)O [aspirin]
[30]
  viability of B-cell CLL cells in vitro: reduced the viability

## Nc1nc(F)nc2c1ncn2[C@@H]1O[C@H](CO)[C@@H](O)[C@@H]1O [fludarabine]
[7]
  killing of CLL cells by either drug alone: ineffective

## CN1C(C(=O)Nc2ccccn2)=C(O)c2ccccc2S1(=O)=O [piroxicam]
[28]
  increase of the potency of the anti-cancer drug: inactive

## O=C(O)c1ccccc1O [salicylate]
[30]
  viability of B-cell CLL cells in vitro: reduced the viability
